# According to PubChem BioAssay AID2060503 (Molecular Pharmacology Branch, DTP, NCI, 2025):
# Test system: 817829-284-R-J1-PDC complex spheroids, viability
# Test: Anticancer human tumor 817829-284-R-J1-PDC patient-derived colon adenocarcinoma cell line growth inhibition [GQUAD]
# Conditions: for IC50: curve of first compound; for viability, T/C: stronger effect = lower value
# Method in brief: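 Multi-cell-type spheroids of tumor cells with HUVEC and mesenchymal stem cells, treated with drug combinations. Concentrations descend in half-log steps from near clinical Cmax, or from 10 microM where Cmax is unknown; viability read-out.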
# [1] = second compound 0.0316 µM, first compound 0.0316 µM
# [2] = second compound 0.0316 µM, first compound 0.1 µM
# [3] = second compound 0.0316 µM, first compound 0.316 µM
# [4] = second compound 0.0316 µM, first compound 1 µM
# [5] = second compound 0.0316 µM, first compound 3.16 µM
# [6] = second compound 0.0316 µM, first compound 10 µM
# [7] = second compound 0.1 µM, first compound 0.0316 µM
# [8] = second compound 0.1 µM, first compound 0.1 µM
# [9] = second compound 0.1 µM, first compound 0.316 µM
# [10] = second compound 0.1 µM, first compound 1 µM
# [11] = second compound 0.1 µM, first compound 3.16 µM
# [12] = second compound 0.1 µM, first compound 10 µM
# [13] = second compound 0.316 µM, first compound 0.0316 µM
# [14] = second compound 0.316 µM, first compound 0.1 µM
# [15] = second compound 0.316 µM, first compound 0.316 µM
# [16] = second compound 0.316 µM, first compound 1 µM
# [17] = second compound 0.316 µM, first compound 3.16 µM
# [18] = second compound 0.316 µM, first compound 10 µM
# [19] = second compound 1 µM, first compound 0.0316 µM
# [20] = second compound 1 µM, first compound 0.1 µM
# [21] = second compound 1 µM, first compound 0.316 µM
# [22] = second compound 1 µM, first compound 1 µM
# [23] = second compound 1 µM, first compound 3.16 µM
# [24] = second compound 1 µM, first compound 10 µM
# [25] = second compound 3.16 µM, first compound 0.0316 µM
# [26] = second compound 3.16 µM, first compound 0.1 µM
# [27] = second compound 3.16 µM, first compound 0.316 µM
# [28] = second compound 3.16 µM, first compound 1 µM
# [29] = second compound 3.16 µM, first compound 3.16 µM
# [30] = second compound 3.16 µM, first compound 10 µM
# [31] = second compound 10 µM, first compound 0.0316 µM
# [32] = second compound 10 µM, first compound 0.1 µM
# [33] = second compound 10 µM, first compound 0.316 µM
# [34] = second compound 10 µM, first compound 1 µM
# [35] = second compound 10 µM, first compound 3.16 µM
# [36] = second compound 10 µM, first compound 10 µM
# 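Further: spheroids exposed to agents for 7 days before readout.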
# 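Wherever viability, T/C is given: percent viability relative to DMSO vehicle control taken as 100%.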
smiles,measurement,setting,value
O=C(NO)c1cnc(N2CCN(S(=O)(=O)c3ccc4ccccc4c3)CC2)nc1 + CN(C)c1ccc(Nc2c3ccc(NC(=O)CCN4CCCC4)cc3nc3cc(NC(=O)CCN4CCCC4)ccc23)cc1,IC50,second compound 0.0316 µM,174 nM
same,IC50,second compound 0.1 µM,184 nM
same,IC50,second compound 0.316 µM,189 nM
same,IC50,second compound 1 µM,182 nM
same,IC50,second compound 3.16 µM,170 nM
same,IC50,second compound 10 µM,82.8 nM
same,"viability, T/C",[1],107%
same,"viability, T/C",[2],91.7%
same,"viability, T/C",[3],5.47%
same,"viability, T/C",[4],0.25%
same,"viability, T/C",[5],0.18%
same,"viability, T/C",[6],0.2%
same,"viability, T/C",[7],116%
same,"viability, T/C",[8],101%
same,"viability, T/C",[9],4.32%
same,"viability, T/C",[10],0.23%
same,"viability, T/C",[11],0.12%
same,"viability, T/C",[12],0.17%
same,"viability, T/C",[13],98.8%
same,"viability, T/C",[14],111%
same,"viability, T/C",[15],5.37%
same,"viability, T/C",[16],0.23%
same,"viability, T/C",[17],0.11%
same,"viability, T/C",[18],0.15%
same,"viability, T/C",[19],103%
same,"viability, T/C",[20],99.4%
same,"viability, T/C",[21],4.41%
same,"viability, T/C",[22],0.21%
same,"viability, T/C",[23],0.1%
same,"viability, T/C",[24],0.13%
same,"viability, T/C",[25],110%
same,"viability, T/C",[26],89.4%
same,"viability, T/C",[27],4.33%
same,"viability, T/C",[28],0.21%
same,"viability, T/C",[29],0.12%
same,"viability, T/C",[30],0.15%
same,"viability, T/C",[31],102%
same,"viability, T/C",[32],39.8%
same,"viability, T/C",[33],2.02%
same,"viability, T/C",[34],0.23%
same,"viability, T/C",[35],0.19%
same,"viability, T/C",[36],0.19%
CC1COCCN1c1cc(C2(S(C)(=N)=O)CC2)nc(-c2ccnc3[nH]ccc23)n1 (stereo unspecified) + Cc1[nH]c2ccc(F)cc2c1-c1nc2c3cccnc3c3ncccc3c2[nH]1,IC50,second compound 0.0316 µM,699 nM
same,IC50,second compound 0.1 µM,701 nM
same,IC50,second compound 0.316 µM,683 nM
same,IC50,second compound 1 µM,709 nM
same,IC50,second compound 3.16 µM,508 nM
same,IC50,second compound 10 µM,< 31.6 nM
same,"viability, T/C",[1],110%
same,"viability, T/C",[2],95.6%
same,"viability, T/C",[3],106%
same,"viability, T/C",[4],25.7%
same,"viability, T/C",[5],11.6%
same,"viability, T/C",[6],8.11%
same,"viability, T/C",[7],96.8%
same,"viability, T/C",[8],107%
same,"viability, T/C",[9],93.4%
same,"viability, T/C",[10],30.4%
same,"viability, T/C",[11],10.7%
same,"viability, T/C",[12],7.69%
same,"viability, T/C",[13],94.7%
same,"viability, T/C",[14],106%
same,"viability, T/C",[15],95.3%
same,"viability, T/C",[16],27.5%
same,"viability, T/C",[17],11.1%
same,"viability, T/C",[18],8.75%
same,"viability, T/C",[19],89.8%
same,"viability, T/C",[20],117%
same,"viability, T/C",[21],105%
same,"viability, T/C",[22],27.2%
same,"viability, T/C",[23],10.7%
same,"viability, T/C",[24],6.79%
same,"viability, T/C",[25],97.7%
same,"viability, T/C",[26],92%
same,"viability, T/C",[27],77.4%
same,"viability, T/C",[28],10.7%
same,"viability, T/C",[29],6.38%
same,"viability, T/C",[30],4.15%
same,"viability, T/C",[31],45.7%
same,"viability, T/C",[32],39.1%
same,"viability, T/C",[33],30.1%
same,"viability, T/C",[34],4.8%
same,"viability, T/C",[35],4.1%
same,"viability, T/C",[36],2.86%
COc1ccc([C@@H](O)c2cc(-c3ncnc4cc(N5CCOCC5)ccc34)c(F)cc2Cl)nn1 + Cc1[nH]c2ccc(F)cc2c1-c1nc2c3cccnc3c3ncccc3c2[nH]1,IC50,second compound 0.0316 µM,> 10000 nM
same,IC50,second compound 0.1 µM,> 10000 nM
same,IC50,second compound 0.316 µM,> 10000 nM
same,IC50,second compound 1 µM,9780 nM
same,IC50,second compound 3.16 µM,2260 nM
same,IC50,second compound 10 µM,337 nM
same,"viability, T/C",[1],110%
same,"viability, T/C",[2],81.3%
same,"viability, T/C",[3],103%
same,"viability, T/C",[4],79.8%
same,"viability, T/C",[5],87.4%
same,"viability, T/C",[6],53.6%
same,"viability, T/C",[7],92.1%
same,"viability, T/C",[8],111%
same,"viability, T/C",[9],93.4%
same,"viability, T/C",[10],99.7%
same,"viability, T/C",[11],84.1%
same,"viability, T/C",[12],51.4%
same,"viability, T/C",[13],82.2%
same,"viability, T/C",[14],111%
same,"viability, T/C",[15],115%
same,"viability, T/C",[16],97.8%
same,"viability, T/C",[17],81.5%
same,"viability, T/C",[18],51.6%
same,"viability, T/C",[19],96.5%
same,"viability, T/C",[20],111%
same,"viability, T/C",[21],132%
same,"viability, T/C",[22],90%
same,"viability, T/C",[23],72.6%
same,"viability, T/C",[24],48.3%
same,"viability, T/C",[25],102%
same,"viability, T/C",[26],79%
same,"viability, T/C",[27],103%
same,"viability, T/C",[28],65.5%
same,"viability, T/C",[29],45.1%
same,"viability, T/C",[30],26%
same,"viability, T/C",[31],41.2%
same,"viability, T/C",[32],82.5%
same,"viability, T/C",[33],45.6%
same,"viability, T/C",[34],29.6%
same,"viability, T/C",[35],33%
same,"viability, T/C",[36],7.18%
